In US8138183B2, “Morpholino pyrimidine derivatives used in diseases linked to mTOR kinase and/or PI3K” (AstraZeneca AB, priority 2007, dated 2012):

Biological target: recombinant mTOR (Homo sapiens, UniProt P42345)
Experiment: In Vitro mTOR Kinase Assay (Echo), Test (a)(ii) (AlphaScreen)
Type: biochemical
Details: Echo acoustic dispensing
Protocol: (a)(ii) In Vitro mTOR Kinase Assay (Echo)
The assay used AlphaScreen technology (Gray et al., Analytical Biochemistry, 2003, 313: 234-245) to determine the ability of test compounds to inhibit phosphorylation by recombinant mTOR.
The HEK293 FLAG-tagged mTOR (1362-2549) stable cell line was routinely maintained at 37° C. with 5% CO2 up to a confluency of 70-90% in Dulbecco's modified Eagle's growth medium (DMEM; Invitrogen Limited, Paisley, UK Catalogue No. 41966-029) containing 10% heat-inactivated foetal calf serum (FCS; Sigma, Poole, Dorset, UK, Catalogue No. F0392), 1% L-glutamine (Gibco, Catalogue No. 25030-024) and 2 mg/ml Geneticin (G418 sulfate; Invitrogen Limited, UK Catalogue No. 10131-027). Following expression in the mammalian HEK293 cell line, expressed protein was purified using the FLAG epitope tag using standard purification techniques.
Aliquots ([…]) of each compound dilution were acoustically […] using a Labcyte Echo 550 into a well of a Greiner 384-well low volume (LV) white polystyrene plate (Greiner Bio-one). A […] mixture of recombinant purified mTOR enzyme, 1 μM biotinylated peptide substrate (Biotin-Ahx-[…]NH2; Bachem UK Ltd), ATP (20 μM) and a buffer solution [comprising Tris-HCl pH7.4 buffer (50 mM), EGTA (0.1 mM), bovine serum albumin (0.5 mg/mL), DTT (1.25 mM) and manganese chloride (10 mM)] was incubated at room temperature for […].
These assay solutions were incubated for 2 hours at room temperature.
Each reaction was stopped by the addition of […] of a mixture of EDTA (50 mM), bovine serum albumin (BSA; 0.5 mg/mL) and Tris-HCl pH7.4 buffer (50 mM) containing
p70 S6 Kinase (T389) 1A5 Monoclonal Antibody (Cell Signalling Technology, Catalogue No. 9206B) and AlphaScreen Streptavidin donor and Protein A acceptor beads (200 ng; Perkin Elmer, Catalogue No. 6760002B and 6760137R respectively) were added and the assay plates were left overnight at room temperature in the dark. The resultant signals arising from laser light excitation at 680 nm were read using a Packard Envision instrument.
The phosphorylated biotinylated peptide that is associated with AlphaScreen Streptavidin donor beads forms a complex with the p70 S6 Kinase (T389) 1A5 Monoclonal Antibody that is associated with Alphascreen Protein A acceptor beads. Upon laser light excitation at 680 nm, the donor bead : acceptor bead complex produces a signal that can be measured. Accordingly, the presence of mTOR kinase activity results in an assay signal. In the presence of an mTOR kinase inhibitor, signal strength is reduced. mTOR enzyme inhibition for a given test compound was expressed as an IC50 value.

Chain of recombinant mTOR (P42345 1362-2549): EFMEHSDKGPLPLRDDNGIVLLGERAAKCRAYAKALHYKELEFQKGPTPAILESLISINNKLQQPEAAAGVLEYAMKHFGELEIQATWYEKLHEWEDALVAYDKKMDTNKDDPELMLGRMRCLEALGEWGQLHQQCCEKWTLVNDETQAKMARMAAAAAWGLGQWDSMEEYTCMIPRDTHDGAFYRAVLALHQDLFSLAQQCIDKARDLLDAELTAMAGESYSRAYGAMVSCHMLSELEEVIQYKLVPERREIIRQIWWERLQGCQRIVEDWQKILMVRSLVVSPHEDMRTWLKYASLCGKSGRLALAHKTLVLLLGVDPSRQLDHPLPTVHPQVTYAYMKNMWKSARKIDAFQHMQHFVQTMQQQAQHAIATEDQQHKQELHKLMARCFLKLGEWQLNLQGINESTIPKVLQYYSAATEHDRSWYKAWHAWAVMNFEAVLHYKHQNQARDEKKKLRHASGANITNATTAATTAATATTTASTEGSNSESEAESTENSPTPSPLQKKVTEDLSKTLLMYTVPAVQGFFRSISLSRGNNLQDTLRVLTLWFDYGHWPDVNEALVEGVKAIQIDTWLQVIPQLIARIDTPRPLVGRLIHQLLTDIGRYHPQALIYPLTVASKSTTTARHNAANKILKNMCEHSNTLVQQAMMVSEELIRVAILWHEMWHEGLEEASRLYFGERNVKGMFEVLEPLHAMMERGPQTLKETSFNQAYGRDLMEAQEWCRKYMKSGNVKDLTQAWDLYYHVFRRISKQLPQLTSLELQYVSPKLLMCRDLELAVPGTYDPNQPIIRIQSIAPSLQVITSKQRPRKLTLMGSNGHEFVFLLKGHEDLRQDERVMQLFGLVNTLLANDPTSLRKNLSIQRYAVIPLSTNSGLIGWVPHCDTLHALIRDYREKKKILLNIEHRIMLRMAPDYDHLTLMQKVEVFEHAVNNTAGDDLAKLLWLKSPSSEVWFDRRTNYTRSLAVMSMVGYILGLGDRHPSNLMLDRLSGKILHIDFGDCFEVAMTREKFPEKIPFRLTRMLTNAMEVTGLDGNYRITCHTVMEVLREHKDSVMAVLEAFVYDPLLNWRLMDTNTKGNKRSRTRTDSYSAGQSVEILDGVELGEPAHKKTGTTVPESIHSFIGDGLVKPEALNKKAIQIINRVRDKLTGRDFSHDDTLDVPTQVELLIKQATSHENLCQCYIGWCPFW

IC50: 81.6 nM
Structure (SMILES): C[C@H]1COCCN1c1cc(CS(C)(=O)=O)nc(-c2ccc(NC(=S)Nc3ccccc3)cc2)n1 [Example 1b, 1-[4-[4-[(3S)-3-methylmorpholin-4-yl]-6-(methylsulfonylmethyl)pyrimidin-2-yl]phenyl]-3-phenyl-thiourea]
